Measurements from patent US10251394B2, “Molecules having pesticidal utility, and intermediates, compositions, and processes, related thereto” (Dow AgroSciences LLC, priority 2016, dated 2019).

Experiments:
[1] = tested on: Beet Armyworm (Spodoptera exigua); experiment: Bioassay on Beet Armyworm (BAW), 128-well diet tray assay; type: in vivo; conditions: for pest or weed control at 50 µg/cm2: Beet Armyworm, Table ABC, read-out: BAW rating
In short: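 Percent mortality, averaged over eight wells, was scored after five to seven days at 25° C under 14:10 light-dark. Each well's diet carried 50 μg/cm^2 of test molecule applied in acetone-water (90:10) and dried before one to five second-instar larvae were added.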

[2] = tested on: Cabbage Looper (Trichoplusia ni); experiment: Bioassay on Cabbage Looper (CL), 128-well diet tray assay; type: in vivo; conditions: for pest or weed control at 50 µg/cm2: Cabbage Looper, Table ABC, read-out: CL rating
In short: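 Mortality after five to seven days at 25° C (14:10 photoperiod), averaged over eight wells per compound. Diet in each well carried 50 μg/cm^2 of dried test molecule and received one to five second-instar larvae.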

| SMILES | pest or weed control at 50 µg/cm2 [1] | pest or weed control at 50 µg/cm2 [2] | also measured |
| --- | --- | --- | --- |
| C[C@@H](NC(=O)c1ccc(/C(F)=C/C(c2cc(Cl)c(Cl)c(Cl)c2)C(F)(F)F)cc1Cl)C(=O)NCC(F)F (stereo partly drawn) [F32, 2-Chloro-N—((R)-1-((2,2-difluoroethyl)amino)-1-oxopropan-2-yl)-4-((Z)-1,4,4,4-tetrafluoro-3-(3,4,5-trichlorophenyl)but-1-en-1-yl)benzamide] | 50 to 100% | 50 to 100% | – |
| C[C@@H](NC(=O)c1ccc(/C(F)=C/C(c2cc(Cl)c(Cl)c(Cl)c2)C(F)(F)F)cc1Br)C(=O)NCC(F)(F)F (stereo partly drawn) [F18, 2-Bromo-N—((R)-1-oxo-1-((2,2,2-trifluoroethyl)amino)propan-2-yl)-4-((Z)-1,4,4,4-tetrafluoro-3-(3,4,5-trichlorophenyl)but-1-en-1-yl)benzamide] | 50 to 100% | 50 to 100% | mortality at 0.05 µg/cm2 ([1]; 168 h, 0.05 μg/cm^2 on artificial diet, second instar larvae, five to seven days, read-out: BAW Percent control (or mortality)): 100%; mortality at 0.5 µg/cm2 ([1]; 168 h, 0.5 μg/cm^2 on artificial diet, second instar larvae, five to seven days, read-out: BAW Percent control (or mortality)): 100%; mortality at 5 µg/cm2 ([1]; 168 h, 5 μg/cm^2 on artificial diet, second instar larvae, five to seven days, read-out: BAW Percent control (or mortality)): 100%; mortality at 0.05 µg/cm2 ([2]; 168 h, 0.05 μg/cm^2 on artificial diet, second instar larvae, five to seven days, read-out: CL Percent control (or mortality)): 100%; mortality at 0.5 µg/cm2 ([2]; 168 h, 0.5 μg/cm^2 on artificial diet, second instar larvae, five to seven days, read-out: CL Percent control (or mortality)): 100%; mortality at 5 µg/cm2 ([2]; 168 h, 5 μg/cm^2 on artificial diet, second instar larvae, five to seven days, read-out: CL Percent control (or mortality)): 100% |
| C[C@@H](NC(=O)c1ccc(/C(F)=C/C(c2cc(Cl)c(Cl)c(Cl)c2)C(F)(F)F)cc1C(F)(F)F)C(=O)N(C)CC(F)(F)F (stereo partly drawn) [F13, N—((R)-1-(Methyl(2,2,2-trifluoroethyl)amino)-1-oxopropan-2-yl)-4-((Z)-1,4,4,4-tetrafluoro-3-(3,4,5-trichlorophenyl)but-1-en-1-yl)-2-(trifluoromethyl)benzamide] | 50 to 100% | 50 to 100% | – |
| CON(CC(F)(F)F)C(=O)[C@@H](C)NC(=O)c1ccc(/C(F)=C/C(c2cc(Cl)c(Cl)c(Cl)c2)C(F)(F)F)cc1C(F)(F)F (stereo partly drawn) [F24, N—((R)-1-(Methoxy(2,2,2-trifluoroethyl)amino)-1-oxopropan-2-yl)-4-((Z)-1,4,4,4-tetrafluoro-3-(3,4,5-trichlorophenyl)but-1-en-1-yl)-2-(trifluoromethyl)benzamide] | 50 to 100% | 50 to 100% | – |
| O=C(NC1(C(=O)NCC(F)(F)F)CC1)c1ccc(/C(F)=C/C(c2ccc(Cl)c(Cl)c2)C(F)(F)F)cc1Br (stereo not drawn) [F125, (Z)-2-Bromo-4-(3-(3,4-dichlorophenyl)-1,4,4,4-tetrafluorobut-1-en-1-yl)-N-(1-((2,2,2-trifluoroethyl)carbamoyl)cyclopropyl)benzamide] | 50 to 100% | 50 to 100% | – |
| O=C(CNC(=O)c1ccc(/C(F)=C/C(c2cc(Cl)c(Br)c(Cl)c2)C(F)(F)F)cc1C(F)(F)F)NCC(F)(F)F (stereo not drawn) [F110] | 50 to 100% | 50 to 100% | – |
| C[C@@H](NC(=O)c1ccc(/C(F)=C/C(c2cc(Cl)c(Cl)c(Cl)c2)C(F)(F)F)cc1Br)C(=O)NCC(F)F (stereo partly drawn) [F31, 2-Bromo-N—((R)-1-((2,2-difluoroethyl)amino)-1-oxopropan-2-yl)-4-((Z)-1,4,4,4-tetrafluoro-3-(3,4,5-trichlorophenyl)but-1-en-1-yl)benzamide] | 50 to 100% | 50 to 100% | – |
| C[C@@H](NC(=O)c1ccc(/C(F)=C/C(c2cc(Cl)c(Cl)c(C#N)c2)C(F)(F)F)cc1C(F)(F)F)C(=O)NCC(F)(F)F (stereo partly drawn) [F192, 4-((Z)-3-(3,4-Dichloro-5-cyanophenyl)-1,4,4,4-tetrafluorobut-1-en-1-yl)-N—((R)-1-oxo-1-((2,2,2-trifluoroethyl)amino)propan-2-yl)-2-(trifluoromethyl)benzamide] | 50 to 100% | 50 to 100% | – |
| CC[C@@H](NC(=O)c1ccc(/C(F)=C/C(c2cc(Cl)c(Cl)c(Cl)c2)C(F)(F)F)cc1C(F)(F)F)C(=O)NCC(F)(F)F (stereo partly drawn) [F98, N—((R)-1-Oxo-1-((2,2,2-trifluoroethyl)amino)butan-2-yl)-4-((Z)-1,4,4,4-tetrafluoro-3-(3,4,5-trichlorophenyl)but-1-en-1-yl)-2-(trifluoromethyl)benzamide] | 50 to 100% | 50 to 100% | – |
| CC(F)(F)CNC(=O)C1(NC(=O)c2ccc(/C(F)=C/C(c3cc(Cl)c(Cl)c(Cl)c3)C(F)(F)F)cc2C(F)(F)F)CC1 (stereo not drawn) [F92, (Z)—N-(1-((2,2-Difluoropropyl)carbamoyl)cyclopropyl)-4-(1,4,4,4-tetrafluoro-3-(3,4,5-trichlorophenyl)but-1-en-1-yl)-2-(trifluoromethyl)benzamide] | 50 to 100% | 50 to 100% | – |
| C=Cc1cc(C(/C=C(\F)c2ccc(C(=O)N[C@@H]3CON(CC(F)(F)F)C3=O)c(C(F)(F)F)c2)C(F)(F)F)cc(Cl)c1Cl (stereo partly drawn) [F196, 4-((Z)-3-(3,4-Dichloro-5-vinylphenyl)-1,4,4,4-tetrafluorobut-1-en-1-yl)-N—((R)-3-oxo-2-(2,2,2-trifluoroethyl)isoxazolidin-4-yl)-2-(trifluoromethyl)benzamide] | 50 to 100% | 50 to 100% | – |
| C[C@@H](NC(=O)c1ccc(/C(F)=C/C(c2cc(Cl)c(Cl)c(C(F)F)c2)C(F)(F)F)cc1C(F)(F)F)C(=O)NCC(F)(F)F (stereo partly drawn) [F195, 4-((Z)-3-(3,4-dichloro-5-(difluoromethyl)phenyl)-1,4,4,4-tetrafluorobut-1-en-1-yl)-N—((R)-1-oxo-1-((2,2,2-trifluoroethyl)amino)propan-2-yl)-2-(trifluoromethyl)benzamide] | 50 to 100% | 50 to 100% | – |
| C[C@@H](NC(=O)c1ccc(/C(F)=C/C(c2ccc(OC(F)(F)F)c(Cl)c2)C(F)(F)F)cc1C(F)(F)F)C(=O)NCC(F)(F)F (stereo partly drawn) [F182, 4-((Z)-3-(3-Chloro-4-(trifluoromethoxy)phenyl)-1,4,4,4-tetrafluorobut-1-en-1-yl)-N—((R)-1-oxo-1-((2,2,2-trifluoroethyl)amino)propan-2-yl)-2-(trifluoromethyl)benzamide] | 50 to 100% | 50 to 100% | – |
| C[C@@H](NC(=O)c1ccc(/C(F)=C/C(c2cc(Cl)cc(C(F)F)c2)C(F)(F)F)cc1C(F)(F)F)C(=O)NCC(F)(F)F (stereo partly drawn) [F213, 4-((Z)-3-(3-Chloro-5-(difluoromethyl)phenyl)-1,4,4,4-tetrafluorobut-1-en-1-yl)-N—((R)-1-oxo-1-((2,2,2-trifluoroethyl)amino)propan-2-yl)-2-(trifluoromethyl)benzamide] | 50 to 100% | 50 to 100% | – |
| C=Cc1cc(C(/C=C(\F)c2ccc(C(=O)N[C@H](C)C(=O)NCC(F)(F)F)c(C(F)(F)F)c2)C(F)(F)F)cc(C=C)c1Cl (stereo partly drawn) [F184, 4-((Z)-3-(4-Chloro-3,5-divinylphenyl)-1,4,4,4-tetrafluorobut-1-en-1-yl)-N—((R)-1-oxo-1-((2,2,2-trifluoroethyl)amino)propan-2-yl)-2-(trifluoromethyl)benzamide] | 50 to 100% | 50 to 100% | – |
| C[C@@H](NC(=O)c1ccc(/C(F)=C/C(c2ccc(Cl)c(Cl)c2)C(C)(F)F)cc1C(F)(F)F)C(=O)NCC(F)(F)F (stereo partly drawn) [F112, 4-((Z)-3-(3,4-Dichlorophenyl)-1,4,4-trifluoropent-1-en-1-yl)-N—((R)-1-oxo-1-((2,2,2-trifluoroethyl)amino)propan-2-yl)-2-(trifluoromethyl)benzamide] | 50 to 100% | 50 to 100% | – |
| O=C(NC1CCCN(CC(F)(F)F)C1=O)c1ccc(/C(F)=C/C(c2cc(Cl)c(Cl)c(Cl)c2)C(F)(F)F)cc1C(F)(F)F (stereo not drawn) [F104, (Z)—N-(2-Oxo-1-(2,2,2-trifluoroethyl)piperidin-3-yl)-4-(1,4,4,4-tetrafluoro-3-(3,4,5-trichlorophenyl)but-1-en-1-yl)-2-(trifluoromethyl)benzamide] | 50 to 100% | 50 to 100% | – |
| O=C(CNC(=O)c1ccc(/C(F)=C/C(c2ccc(C(F)(F)F)c(F)c2)C(F)(F)F)cc1C(F)(F)F)NCC(F)(F)F (stereo not drawn) [F211] | 50 to 100% | 50 to 100% | – |
| CN(CC(F)(F)F)C(=O)C1(NC(=O)c2ccc(/C(F)=C/C(c3ccc(Br)c(Cl)c3)C(F)(F)F)cc2C(F)(F)F)CC1 (stereo not drawn) [PF28, (Z)-4-(3-(4-Bromo-3-chlorophenyl)-1,4,4,4-tetrafluorobut-1-en-1-yl]-N-(1-(methyl(2,2,2-trifluoroethyl)carbamoyl)cyclopropyl)-2-(trifluoromethyl)benzamide] | 50 to 100% | 50 to 100% | – |
| C[C@@H](NC(=O)c1ccc(/C(F)=C/C(c2cc(F)c(Cl)c(C(F)(F)F)c2)C(F)(F)F)cc1C(F)(F)F)C(=O)NCC(F)(F)F (stereo partly drawn) [F202, 4-((Z)-3-(4-Chloro-3-fluoro-5-(trifluoromethyl)phenyl)-1,4,4,4-tetrafluorobut-1-en-1-yl)-N—((R)-1-oxo-1-((2,2,2-trifluoroethyl)amino)propan-2-yl)-2-(trifluoromethyl)benzamide] | 50 to 100% | 50 to 100% | – |
| O=C(CNC(=O)c1ccc(/C(F)=C/C(c2ccc(C(F)(F)F)c(Cl)c2)C(F)(F)F)cc1C(F)(F)F)NCC(F)(F)F (stereo not drawn) [F206, (Z)-4-(3-(3-Chloro-4-(trifluoromethyl)phenyl)-1,4,4,4-tetrafluorobut-1-en-1-yl)-N-(2-oxo-2-((2,2,2-trifluoroethyl)amino)ethyl)-2-(trifluoromethyl)benzamide] | 50 to 100% | 50 to 100% | – |
